In data set [1] the target is T1, Melanin-concentrating hormone receptor 1 (Homo sapiens, UniProt Q99705). Briefly: Antagonist activity at human MCHR1 expressed in Jurkat cells co-expressing apoaequorin assessed as inhibition of MCH-induced calcium mobilization by aequorin bioluminescence assay. The format is functional, cell-based.
Data set [2] deals with T1, Melanin-concentrating hormone receptor 1. The data set is described as follows: Displacement of [125I]-MCH from MCHR1 after 2 hrs by beta scintillation counting.
Data set [3] concerns Rattus norvegicus. The data set is described as follows: Clearance in rat at 0.5 mg/kg, iv. The class given is ADME, organism-based. On the set-up: dose 0.5 mg/kg, route intravenous. As to conditions: in vivo.
The nature of data set [4]: Clearance in Beagle dog at 0.5 mg/kg, iv. On the set-up: dose 0.5 mg/kg, route intravenous. The class given is ADME, organism-based, Canis lupus familiaris. As to conditions: in vivo.
Data set [5] is described as follows: Clearance in rhesus monkey at 0.5 mg/kg, iv. The class given is ADME, organism-based, Macaca mulatta. Conditions: in vivo. Further details: dose 0.5 mg/kg, route intravenous.
The nature of data set [6]: Volume of distribution at steady state in rat at 0.5 mg/kg, iv. On the set-up: dose 0.5 mg/kg, route intravenous. Conditions: in vivo, read-out: Vdss. The class given is ADME, organism-based.
The nature of data set [7]: Volume of distribution at steady state in Beagle dog at 0.5 mg/kg, iv. The class given is ADME, organism-based, Canis lupus familiaris. Further details: dose 0.5 mg/kg, route intravenous. Conditions: in vivo, read-out: Vdss.
Data set [8] in a line: Volume of distribution at steady state in rhesus monkey at 0.5 mg/kg, iv. The format is ADME, organism-based, Macaca mulatta. Further details: dose 0.5 mg/kg, route intravenous. As to conditions: in vivo, read-out: Vdss.
Data set [9] is described as follows: Mean residence time in rat at 3 mg/kg, po. On the set-up: dose 3 mg/kg, route oral. The class given is ADME, organism-based. As to conditions: in vivo.
A short description of data set [10]: Mean residence time in Beagle dog at 3 mg/kg, po. The format is ADME, organism-based, Canis lupus familiaris. As to conditions: in vivo. Further details: dose 3 mg/kg, route oral.
Data set [11] in a line: Mean residence time in rhesus monkey at 3 mg/kg, po. The class given is ADME, organism-based, Macaca mulatta. On the set-up: dose 3 mg/kg, route oral. Conditions: in vivo.
For data set [12], the system named is Rattus norvegicus. The data set is described as follows: AUC in rat at 3 mg/kg, po. The format is ADME, organism-based, Plasma. Further details: dose 3 mg/kg, route oral. Conditions: in vivo.
Data set [13] in a line: AUC in Beagle dog at 3 mg/kg, po. The format is ADME, organism-based, Canis lupus familiaris. On the set-up: dose 3 mg/kg, route oral. As to conditions: plasma.
The nature of data set [14]: AUC in rhesus monkey at 3 mg/kg, po. The class given is ADME, organism-based, Macaca mulatta. Further details: dose 3 mg/kg, route oral. Conditions: plasma.
The subject of data set [15] is Rattus norvegicus. The data set is described as follows: Oral bioavailability in rat at 3 mg/kg. The format is ADME, organism-based. Conditions: in vivo.
Data set [16] in a line: Oral bioavailability in Beagle dog at 3 mg/kg. The format is ADME, organism-based, Canis lupus familiaris. Conditions: in vivo.
A short description of data set [17]: Oral bioavailability in rhesus monkey at 3 mg/kg. The class given is ADME, organism-based, Macaca mulatta. As to conditions: in vivo.
The nature of data set [18]: Clearance in rat hepatocytes assessed per 10^6 cells. The format is ADME, cell-based, Liver, Hepatocyte.
Data set [19] is described as follows: Clearance in Beagle dog hepatocytes assessed per 10^6 cells. The format is ADME, cell-based, Canis lupus familiaris, Liver, Hepatocyte.
Data set [20] in a line: Clearance in rhesus monkey hepatocytes assessed per 10^6 cells. The format is ADME, cell-based, Macaca mulatta, Liver, Hepatocyte.
Data set [21] is described as follows: Clearance in human hepatocytes assessed per 10^6 cells. The class given is ADME, cell-based, Liver, Hepatocyte.
For data set [22], the target named is Melanin-concentrating hormone receptor 1 (Rattus norvegicus, UniProt P97639). Briefly: Antagonist activity at rat MCHR1 expressed in HEK293 cells by aequorin bioluminescence assay. The format is functional, cell-based.
Sequence of Melanin-concentrating hormone receptor 1 (Rattus norvegicus, UniProt P97639) (P97639 whole entry): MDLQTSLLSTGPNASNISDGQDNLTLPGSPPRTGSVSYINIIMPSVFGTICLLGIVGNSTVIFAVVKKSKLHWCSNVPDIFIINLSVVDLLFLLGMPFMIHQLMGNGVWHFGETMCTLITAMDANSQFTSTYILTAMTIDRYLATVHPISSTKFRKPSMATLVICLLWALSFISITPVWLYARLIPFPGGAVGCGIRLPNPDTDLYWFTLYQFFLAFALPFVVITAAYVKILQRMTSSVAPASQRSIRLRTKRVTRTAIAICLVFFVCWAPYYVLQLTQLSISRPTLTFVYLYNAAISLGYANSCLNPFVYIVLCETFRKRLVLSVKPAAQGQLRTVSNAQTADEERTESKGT
Data set [23] concerns Rattus norvegicus. Briefly: Antiobesity activity in ICV cannulated rat model assessed as reduction in MCH-induced food intake at 0.2 mg/kg, po administered 3 hrs before MCH challenge measured after 4 hrs post MCH challenge. The class given is functional. Further details: scale not given: the % may be the effect or the level left.
Data set [24] concerns Rattus norvegicus. Briefly: Antiobesity activity in ICV cannulated rat model assessed as reduction in MCH-induced food intake at 1 mg/kg, po administered 3 hrs before MCH challenge measured after 4 hrs post MCH challenge. The class given is functional, organism-based. On the set-up: dose 1 mg/kg.
In data set [25] the test system is Rattus norvegicus. The data set is described as follows: Antiobesity activity in ICV cannulated rat model assessed as reduction in MCH-induced food intake at 5 mg/kg, po administered 3 hrs before MCH challenge measured after 4 hrs post MCH challenge. The class given is functional, organism-based. Further details: dose 5 mg/kg.
The test system of data set [26] is Rattus norvegicus. Briefly: Toxicity in ICV cannulated rat model at 0.2 to 5 mg/kg, po administered 3 hrs before MCH challenge measured after 4 hrs post MCH challenge. As to conditions: in vivo. The format is organism-based. Further details: dose 0.2-5 mg/kg, route oral.
Data set [27] addresses Melanin-concentrating hormone receptor 2 (Homo sapiens) (UniProt Q969V1). The data set is described as follows: Binding affinity to human MCHR2.
Data set [28] deals with Melanin-concentrating hormone receptor 1 (Macaca fascicularis, UniProt B6F061). The data set is described as follows: Antagonist activity at cynomolgus monkey MCHR1. The class given is functional.
Sequence of Melanin-concentrating hormone receptor 1 (Macaca fascicularis, UniProt B6F061) (B6F061 whole entry): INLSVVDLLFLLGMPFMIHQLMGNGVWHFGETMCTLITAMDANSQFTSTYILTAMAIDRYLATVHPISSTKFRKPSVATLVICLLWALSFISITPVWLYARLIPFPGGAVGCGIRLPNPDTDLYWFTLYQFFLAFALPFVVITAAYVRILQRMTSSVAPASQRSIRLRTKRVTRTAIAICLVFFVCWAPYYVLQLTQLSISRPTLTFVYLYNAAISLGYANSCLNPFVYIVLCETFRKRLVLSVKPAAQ
Data set [29] concerns Cynomolgus monkey. Briefly: Antiobesity activity in cynomolgus monkey assessed as reduction of food intake at 10 mg/kg, po measured up to 8 days. Further details: dose 10 mg/kg. As to conditions: Macaca fascicularis. The format is functional, organism-based.
Data set [30] has as its system Rattus norvegicus. The data set is described as follows: Toxicity in ICV cannulated rat model assessed as behavioural toxicity at 0.2 to 5 mg/kg, po administered 3 hrs before MCH challenge measured after 4 hrs post MCH challenge. On the set-up: dose 0.2-5 mg/kg, route oral. The class given is organism-based. As to conditions: in vivo.
In data set [31] the test system is Cynomolgus monkey. Briefly: Toxicity in cynomolgus monkey assessed as signs of sedation at 10 mg/kg, po. The class given is organism-based, Macaca fascicularis. On the set-up: dose 10 mg/kg, route oral. Conditions: in vivo.
For data set [32], the system named is Cynomolgus monkey. The data set is described as follows: Toxicity in cynomolgus monkey at 10 mg/kg, po. On the set-up: dose 10 mg/kg, route oral. The class given is organism-based, Macaca fascicularis. Conditions: in vivo.

This is an account of results in ChEMBL document CHEMBL1921706, “Discovery of a novel series of melanin-concentrating hormone receptor 1 antagonists for the treatment of obesity” (Bioorg Med Chem Lett, 2011).

Molecules are shown by their SMILES. The source made the active and inactive calls. No cut-off for these calls is given here. Where only a bound is given, the exact number is not on record here.

T1 sequence (Q99705 whole entry): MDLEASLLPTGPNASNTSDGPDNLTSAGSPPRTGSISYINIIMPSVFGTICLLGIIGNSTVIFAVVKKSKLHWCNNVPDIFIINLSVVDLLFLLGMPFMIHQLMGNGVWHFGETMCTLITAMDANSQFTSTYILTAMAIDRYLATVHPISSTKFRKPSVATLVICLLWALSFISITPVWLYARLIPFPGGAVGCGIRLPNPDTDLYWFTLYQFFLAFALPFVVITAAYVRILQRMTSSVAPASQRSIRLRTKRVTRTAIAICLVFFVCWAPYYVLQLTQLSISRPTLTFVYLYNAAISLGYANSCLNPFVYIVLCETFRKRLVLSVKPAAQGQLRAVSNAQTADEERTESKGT
Sequence of Melanin-concentrating hormone receptor 2 (Homo sapiens) (Q969V1 whole entry): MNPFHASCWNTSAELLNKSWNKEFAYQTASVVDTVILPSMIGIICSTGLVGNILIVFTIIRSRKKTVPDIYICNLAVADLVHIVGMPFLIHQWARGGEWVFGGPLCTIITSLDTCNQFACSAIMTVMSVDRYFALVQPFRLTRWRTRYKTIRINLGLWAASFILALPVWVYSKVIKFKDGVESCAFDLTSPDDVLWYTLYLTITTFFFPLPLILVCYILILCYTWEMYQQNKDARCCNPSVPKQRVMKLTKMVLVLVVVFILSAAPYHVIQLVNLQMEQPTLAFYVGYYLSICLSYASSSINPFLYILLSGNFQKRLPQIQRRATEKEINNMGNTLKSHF

Regarding `CC1c2c([nH]c3ccc(C(F)(F)F)cc23)CC2CCN(CCN3CCOCC3)CC21` (racemic), in data set [1], the IC50 turned out to be 20 nM.
On to `CC1c2c([nH]c3cc(Cl)c(Cl)cc23)CC2CCN(C)CC21` (racemic), for which the IC50 in data set [1] turned out to be 50 nM.
Same read-out and setting: under `COc1ccc2[nH]c3c(c2c1)C(C)C1CN(C)CCC1C3` (racemic) stands 400 nM.
On the same count and under the same terms, under `CC1c2c([nH]c3ccccc23)CC2CCN(C)CC21` (racemic) stands 1000 nM.
In the case of `C[C@H]1c2c([nH]c3ccc(C(F)(F)F)cc23)C[C@H]2CCN(CCN3CCOCC3)C[C@@H]21`, the IC50 turned out to be 20 nM in [1] and 3 nM in [2].
In the same order, the values of `C[C@H]1c2c([nH]c3ccc(C(F)(F)F)cc23)C[C@H]2CCN(CCN3CCOCC3=O)C[C@@H]21` are 7 nM and 7 nM.
With `Cc1ccc2[nH]c3c(c2c1)C(C)C1CN(C)CCC1C3` (racemic), the IC50 in [1] was found to be 200 nM.
Same read-out and setting: under `CC1c2c([nH]c3cccc(Cl)c23)CC2CCN(C)CC21` (racemic) stands 700 nM; under `CC1c2c([nH]c3ccc(Cl)cc23)CC2CCN(C)CC21` (racemic), 100 nM.
For the molecule `C[C@H]1c2c([nH]c3ccc(C(F)(F)F)cc23)C[C@H]2CCN(CCC3CCOCC3)C[C@@H]21`, the IC50 in [1] turned out to be 6 nM; in data set [2] it was 0.9 nM.
Take `C[C@H]1c2c([nH]c3ccc(C(F)(F)F)cc23)C[C@H]2CCN(CCN3CCCCC3)C[C@@H]21`: the IC50 in data set [1] was found to be 100 nM; in [2] it was 40 nM.
Consider `C[C@@H]1c2c([nH]c3ccc(C(F)(F)F)cc23)C[C@@H]2CCN(CCN3CCOCC3)C[C@H]21`, for which the IC50 stood at 1000 nM in data set [1] and 750 nM in [2].
As to `CC1c2c([nH]c3ccc(C(F)(F)F)cc23)CC2CCN(C(=O)c3ccccc3)CC21` (racemic), the 50% inhibitory concentration (IC50) in data set [1] is above 20000 nM.
The same measure, in the same setting: under `CC1c2c([nH]c3ccc(C(F)(F)F)cc23)CC2CCN(CC3CCCCO3)CC21` (racemic) stands 180 nM; under `CC1c2c([nH]c3c(Cl)cccc23)CC2CCN(C)CC21` (racemic), 1000 nM; under `CC1c2c([nH]c3cc(C(F)(F)F)ccc23)CC2CCN(C)CC21` (racemic), 200 nM.
Still for that read-out and setting: with `CC1c2c([nH]c3ccc(C(F)(F)F)cc23)CC2CCN(Cc3ccccc3)CC21` (racemic) the figure was 580 nM; with `CC1c2c([nH]c3ccc(C(F)(F)F)cc23)CC2CCN(C(=O)C3CCOC3)CC21` (racemic), above 20000 nM.
On the same count and under the same terms, with `CC1c2c([nH]c3ccc(C(F)(F)F)cc23)CC2CCN(CCc3ccccc3)CC21` (racemic) the figure was 180 nM.
In the case of `C[C@H]1c2c([nH]c3ccc(C(F)(F)F)cc23)C[C@H]2CCN(CCCC3CCOCC3)C[C@@H]21`, the IC50 was found to be 6 nM in data set [1], 0.5 nM in data set [2], 4 nM in [22] and 4 nM in [28]. In the data set with Rattus norvegicus [3], the CL stood at 3.3 mL/min/kg. Also, the clearance is 100 mL/min/kg in data set [4] and 65 mL/min/kg in [5]. Also, the Vd in data set [6] was 16 L/kg; in data set [7], 27 L/kg; in data set [8], 18 L/kg. For the same molecule, the MRT in [9] was determined as 28 h; in data set [10], 2.5 h; in data set [11], 10 h. In addition, the exposure (AUC) in the data set on Rattus norvegicus [12] came to 4078 ng·h/mL; in data set [13], 268 ng·h/mL; in data set [14], 907 ng·h/mL. The molecule also yielded a F in the data set with Rattus norvegicus [15] of 81%. For the same molecule, the bioavailability in data set [16] came out at 33%; in data set [17], 70%. Further, the hepatocyte CLint is below 0.3 µL/min/1e6 cells in data set [18], 8 µL/min/1e6 cells in data set [19], 4.9 µL/min/1e6 cells in data set [20] and below 0.3 µL/min/1e6 cells in data set [21]. For the same molecule, the Activity is listed as 50% in the data set with Rattus norvegicus [23]; “Non-toxic” in the data set on Rattus norvegicus [26]; “Non-toxic” with Rattus norvegicus [30]; “Non-toxic” in the data set on Cynomolgus monkey [31]; “Non-toxic” with Cynomolgus monkey [32]. The result in the data set with Rattus norvegicus [24], in the data set on Rattus norvegicus [25] and in the data set on Cynomolgus monkey [29] was Active. Besides, in [27], the result was inactive.
For `C[C@H]1c2c([nH]c3ccc(C(F)(F)F)cc23)C[C@H]2CCN(CCCCC3CCOCC3)C[C@@H]21`, the IC50 was found to be 50 nM in [1] and 4.4 nM in data set [2].
Take `CC1c2c([nH]c3ccc(C(F)(F)F)cc23)CC2CCN(C)CC21` (racemic): the IC50 in [1] was found to be 100 nM.
